From US4443466A, “4-Benzyl- and 4-benzoyl-substituted imidazole derivatives and use as medicaments” (priority 1980, dated 1984)
Read-outs that look alike come from different tables or passages of the source.

Columns and labels:
[1] = system: acetic acid-induced writhing; assay: Writhing test (acetic acid); assay type: in vivo, rat;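 as to Analgesic activity: ++ means marked effect and + means moderate effect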
Method: (§1) The analgesic activity of the compounds of formula (I) was tested in the following manner: […]
The compounds studied and saline were administered p.o. to rats. Forty-five minutes later, 1 ml of 1% acetic acid was administered i.p. The number of writhes was recorded in the following 25 minute period (Koster et al: Fed. Proc. 18:412, 1959).

[2] = system: carrageenan-induced oedema; assay: Inhibition of carrageenan-induced oedema; assay type: in vivo, rat; details: for inhibition in vivo at 100 mg/kg: po, read-out: inhibition carrageenan-induced oedema (%);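 as to Anti-inflammatory activity: ++ means marked effect and + means moderate effect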
Method: The anti-inflammatory activity of the compounds of the invention was determined by inhibition of the carrageenan induced oedema in rats by the compounds examined (Winter C. A. et al., Proc. Soc. Exp. Biol. Med. 111:544, 1962).

[3] = system: indomethacin-induced ulcers; assay: Preventive effect on formation of indomethacin-induced ulcers; assay type: in vivo, rat (female Sprague-Dawley); details: for ED50: Rattus norvegicus, ip, 4 h, read-out: ED50 (ulcer prevention)
[4] = Acute toxicity in female NMRI mice, i.v.; details: in vivo, iv, mouse
Method: Acute toxicity was determined by using female mice of NMRI-Strain with an age of about 7 months and weighing 30-40 g. The administration of the test compound was i.v.

[5] = system: anesthetized Sprague-Dawley rats (blood pressure, pulse frequency); assay: Blood pressure and pulse frequency in anesthetized normal-weight Sprague-Dawley rats (i.v.); assay type: in vivo, rat (Sprague-Dawley); details: for anti-hypertensive effect: tested as above; for minimal effective dose: Rattus norvegicus, iv
Method: The anti-hypertensive properties of the imidazole derivatives of the present invention have been determined according to the following procedure. Sprague-Dawley rats of normal weight were first anesthetized with urethane. After this, the femoral artery was connected by way of a polyethylene tube with a blood pressure transducer. The test substance was then injected into the femoral vein and the blood pressure and the pulse frequency were registered with a recorder. The minimum doses producing a significant change were found, i.e. ± at least 20% in the case of blood pressure, and ± at least 3% in the case of pulse frequency.

[6] = Preventive effect on formation of indomethacin-induced ulcers; assay type: in vivo, rat (female Sprague-Dawley); details: rat, in vivo, iv; LD50 (mouse, i.v.) / ED50 (ulcer); read-out: Therapeutic Index
[7] = system: rats (motility, muscle tone, catalepsia); assay: Tranquilizing activity: Irwin screen in rats; assay type: in vivo, rat; details: 1.0 mg/kg
Method: (§2) The tranquilizing activity of the compounds was determined by the following methods:
(1) Irwin screen in rats (Irwin S., Psychopharmacologia 13:222, 1968)
Especially sedatory and cataleptic activity and effects on muscle tone are observed.

[8] = system: cattle (avoidance, muscle tone); assay: Tranquilizing or taming effect on cattle; assay type: in vivo; details: 0.1 mg/kg i.m.
Method: as §2
(2) Tranquilizing or taming effect on cattle:
The test compounds were administered i.m. to cattle, mostly to heifers (150-200 kg).
The most suitable tranquilized state of an animal includes the ability to retain the upright position and coordination with minimal avoidance reactions to painful stimuli and handling. Thus, a combination of sedative and analgesic potency is required.

[9] = system: male mice on a 55° C. hot plate; assay: Hot plate test; assay type: in vivo, mouse (male); details: for Analgesic activity: 1.5 mg/kg; for change in vivo at 1.5 mg/kg: Mus musculus, ip, 0.5 h, 1.5 mg/kg i.p., read-out: increase in HP-time (%)
Method: as §1
Test compounds or saline were given i.p. to male mice. Thirty minutes thereafter, the time for which the mice remained on a 55° C. plate was recorded. The results are expressed as compared to saline.

[10] = read-out: Blood Pressure Minimum Dose having a significant lowering effect
[11] = read-out: Pulse frequency Minimum Dose having a significant lowering effect

Cc1ccc(C(O)c2c[nH]cn2)cc1 (stereo not drawn) [4-[α-(4'-Methylphenyl)]hydroxymethylimidazole]
Analgesic activity ([1]; 100 mg/kg): ++ | W-number ([1]; 100 mg/kg p.o.): 0.6 | Anti-inflammatory activity ([2]; 100 mg/kg p.o. in the rat): + | inhibition in vivo at 100 mg/kg ([2]; Rattus norvegicus): 38%

COC(c1c[nH]cn1)c1c(C)cccc1C (stereo not drawn) [4-[α-(2',6'-Dimethylphenyl)]methoxymethylimidazole]
Analgesic activity ([1]; 100 mg/kg): + | W-number ([1]; 100 mg/kg p.o.): 13 | Anti-inflammatory activity ([2]; 100 mg/kg p.o. in the rat): + | inhibition in vivo at 100 mg/kg ([2]; Rattus norvegicus): 40%

Cc1cccc(C)c1C(=O)c1c[nH]cn1 [4-(2',6'-dimethylbenzoyl)imidazole, 4-(2',6'-Dimethylbenzoyl)imidazole]
prevention of the formation of ulcers ([3]; 10 mg/kg): prevented them partially | prevention of the formation of ulcers ([3]; 20 mg/kg): prevented completely the formation of ulcers | LD50 [4]: > 100 mg/kg | anti-hypertensive effect [5]: only a very slight anti-hypertensive effect

Cc1ccccc1C(O)c1c[nH]cn1 (stereo not drawn) [4-[α-(2'-Methylphenyl)]hydroxymethylimidazole]
prevention of the formation of ulcers ([3]; 0.5 mg/kg): prevented them partly | prevention of the formation of ulcers ([3]; 5 mg/kg): completely prevented the formation of ulcers | Analgesic activity ([1]; 100 mg/kg): ++ | W-number ([1]; 100 mg/kg p.o.): 0 | LD50 [4]: 160 mg/kg | Anti-inflammatory activity ([2]; 100 mg/kg p.o. in the rat): + | inhibition in vivo at 100 mg/kg ([2]; Rattus norvegicus): 41% | anti-hypertensive effect [5]: no anti-hypertensive effect was found

Cc1cc(C)c(Cc2c[nH]cn2)c(C)c1 [4-(2',4',6'-trimethylbenzyl)imidazole, 4-(2',4',6'-Trimethylbenzyl)imidazole]
selectivity ratio [6]: 2100 | ED50 [3]: 0.03 mg/kg | catalepsia [7]: + | decrease of motility [7]: ++ | loss of avoidance [8]: + | loss of muscle tone [8]: + | LD50 [4]: 63 mg/kg | minimal effective dose [5, 10]: 0.05 to 0.2 mg/kg | minimal effective dose [5, 11]: 0.03 mg/kg

COc1ccc(C(O)c2c[nH]cn2)cc1 (stereo not drawn) [4-[α-(4'-Methoxyphenyl)]hydroxymethylimidazole]
Analgesic activity ([1]; 100 mg/kg): + | W-number ([1]; 100 mg/kg p.o.): 1.9

CCc1cccc(CC)c1C(O)c1c[nH]cn1 (stereo not drawn) [4-[α-(2',6'-diethylphenyl)]hydroxymethylimidazole]
minimal effective dose [5, 10]: 0.3 to 1 mg/kg | minimal effective dose [5, 11]: 0.3 to 1 mg/kg

Cc1cccc(C)c1C(O)c1nc[nH]c1C (stereo not drawn) [5-Methyl-4-[α-(2',6'-dimethylphenyl)]hydroxymethylimidazole]
Analgesic activity ([1]; 100 mg/kg): + | W-number ([1]; 100 mg/kg p.o.): 13 | Anti-inflammatory activity ([2]; 100 mg/kg p.o. in the rat): + | inhibition in vivo at 100 mg/kg ([2]; 100 mg/kg p.o. in the rat): 52%

Cc1ccccc1Cc1nc[nH]c1C [5-methyl-4-(2'-methylbenzyl)imidazole, 5-Methyl-4-(2'-methylbenzyl)imidazole]
Analgesic activity ([1]; 30 mg/kg): + | W-number ([1]; 30 mg/kg p.o.): 43 | Anti-inflammatory activity ([2]; 100 mg/kg p.o. in the rat): + | inhibition in vivo at 100 mg/kg ([2]; 100 mg/kg p.o. in the rat): 44%

COc1cccc(C(O)c2c[nH]cn2)c1 (stereo not drawn) [4-[α-(3'-Methoxyphenyl)]hydroxymethylimidazole]
Analgesic activity ([1]; 100 mg/kg): ++ | W-number ([1]; 100 mg/kg p.o.): 0 | Anti-inflammatory activity ([2]; 100 mg/kg p.o. in the rat): ++ | inhibition in vivo at 100 mg/kg ([2]; Rattus norvegicus): 71%

Cc1cccc(C(O)c2c[nH]cn2)c1C (stereo not drawn) [4-[α-(2',3'-Dimethylphenyl)]hydroxymethylimidazole]
Analgesic activity [9]: ++ | change in vivo at 1.5 mg/kg [9]: 400% | Analgesic activity ([1]; 100 mg/kg): ++ | W-number ([1]; 100 mg/kg p.o.): 0 | Anti-inflammatory activity ([2]; 100 mg/kg p.o. in the rat): + | inhibition in vivo at 100 mg/kg ([2]; Rattus norvegicus): 52%

Cc1ccccc1C(O)c1nc[nH]c1C (stereo not drawn) [5-Methyl-4-[α-(2'-methylphenyl)]hydroxymethylimidazole]
Anti-inflammatory activity ([2]; 100 mg/kg p.o. in the rat): + | inhibition in vivo at 100 mg/kg ([2]; 100 mg/kg p.o. in the rat): 67%

CCc1ccccc1C(O)c1c[nH]cn1 (stereo not drawn) [4-[α-(2'-Ethylphenyl)]hydroxymethylimidazole]
Analgesic activity [9]: + | change in vivo at 1.5 mg/kg [9]: 300% | Analgesic activity ([1]; 100 mg/kg): ++ | W-number ([1]; 100 mg/kg p.o.): 0 | Anti-inflammatory activity ([2]; 100 mg/kg p.o. in the rat): ++ | inhibition in vivo at 100 mg/kg ([2]; Rattus norvegicus): 73%

Cc1cccc(C(O)c2c[nH]cn2)c1 (stereo not drawn) [4-[α-(3'-Methylphenyl)]hydroxymethylimidazole]
Analgesic activity ([1]; 100 mg/kg): ++ | W-number ([1]; 100 mg/kg p.o.): 0 | Anti-inflammatory activity ([2]; 100 mg/kg p.o. in the rat): + | inhibition in vivo at 100 mg/kg ([2]; Rattus norvegicus): 34%

Cc1ccc(C(O)c2c[nH]cn2)c(C)c1 (stereo not drawn) [4-[α-(2',4'-Dimethylphenyl)]hydroxymethylimidazole]
Analgesic activity ([1]; 100 mg/kg): + | W-number ([1]; 100 mg/kg p.o.): 1.3

COc1ccccc1C(O)c1c[nH]cn1 (stereo not drawn) [4-[α-(2'-Methoxyphenyl)]hydroxymethylimidazole]
Analgesic activity ([1]; 100 mg/kg): + | W-number ([1]; 100 mg/kg p.o.): 2.5 | Anti-inflammatory activity ([2]; 100 mg/kg p.o. in the rat): ++ | inhibition in vivo at 100 mg/kg ([2]; Rattus norvegicus): 69% | minimal effective dose [5, 10]: 0.3 to 1 mg/kg | minimal effective dose [5, 11]: 1 mg/kg

Cc1ccccc1Cc1c[nH]cn1 [4-(2'-methylbenzyl)imidazole, 4-(2'-Methylbenzyl)imidazole]
selectivity ratio [6]: 5000 | prevention of the formation of ulcers ([3]; 5 μg/kg i.p.): complete prevention of the formation of ulcers | ED50 [3]: 0.005 mg/kg | Analgesic activity [9]: + | change in vivo at 1.5 mg/kg [9]: 200% | LD50 [4]: 25 mg/kg | lowering of blood pressure ([5]; 0.5 mg/kg i.v., 30 minutes after administration): 10% | minimal effective dose [5, 10]: 0.01 to 0.1 mg/kg | minimal effective dose [5, 11]: 0.1 to 1 mg/kg

Cc1cccc(Cc2c[nH]cn2)c1 [4-(3'-methylbenzyl)imidazole, 4-(3'-Methylbenzyl)imidazole]
selectivity ratio [6]: 1900 | ED50 [3]: 0.02 mg/kg | change in vivo at 1.5 mg/kg [9]: 50% | loss of avoidance [8]: + | Analgesic activity ([1]; 30 mg/kg): ++ | W-number ([1]; 30 mg/kg p.o.): 0 | LD50 [4]: 38 mg/kg | Anti-inflammatory activity ([2]; 100 mg/kg p.o. in the rat): + | inhibition in vivo at 100 mg/kg ([2]; Rattus norvegicus): 61%

Cc1cccc(C)c1Cc1nc[nH]c1C [5-Methyl-4-(2',6'-dimethylbenzyl)imidazole]
prevention of the formation of ulcers ([3]; 0.5 mg/kg): partly prevented the formation of ulcers | prevention of the formation of ulcers ([3]; 5 mg/kg): prevented them completely | LD50 [4]: 27 mg/kg | anti-hypertensive effect [5]: no anti-hypertensive effect was found

CCc1ccccc1Cc1c[nH]cn1 [4-(2'-ethylbenzyl)imidazole, 4-(2'-Ethylbenzyl)imidazole]
selectivity ratio [6]: 6800 | ED50 [3]: 0.005 mg/kg | Analgesic activity [9]: + | change in vivo at 1.5 mg/kg [9]: 150% | LD50 [4]: 34 mg/kg

Cc1ccc(Cc2c[nH]cn2)c(C)c1 [4-(2',4'-dimethylbenzyl)imidazole, 4-(2',4'-Dimethylbenzyl)imidazole]
selectivity ratio [6]: 2170 | ED50 [3]: 0.03 mg/kg | Analgesic activity [9]: + | change in vivo at 1.5 mg/kg [9]: 200% | Analgesic activity ([1]; 100 mg/kg): ++ | W-number ([1]; 100 mg/kg p.o.): 0 | LD50 [4]: 65 mg/kg | Anti-inflammatory activity ([2]; 100 mg/kg p.o. in the rat): ++ | inhibition in vivo at 100 mg/kg ([2]; Rattus norvegicus): 76%

CCOC(c1c[nH]cn1)c1c(C)cccc1C (stereo not drawn) [4-[α-(2',6'-Dimethylphenyl)]ethoxymethylimidazole]
prevention of the formation of ulcers ([3]; 0.5 mg/kg): prevented them partly | prevention of the formation of ulcers ([3]; 5 mg/kg): completely prevented the formation of ulcers | Analgesic activity ([1]; 100 mg/kg): ++ | W-number ([1]; 100 mg/kg p.o.): 0.6 | LD50 [4]: 45 mg/kg | Anti-inflammatory activity ([2]; 100 mg/kg p.o. in the rat): + | inhibition in vivo at 100 mg/kg ([2]; Rattus norvegicus): 35% | anti-hypertensive effect [5]: only a very slight anti-hypertensive effect

Cc1ccc(C(=O)c2c[nH]cn2)cc1 [4-(4'-methylbenzoyl)imidazole, 4-(4'-Methylbenzoyl)imidazole]
Anti-inflammatory activity ([2]; 100 mg/kg p.o. in the rat): + | inhibition in vivo at 100 mg/kg ([2]; 100 mg/kg p.o. in the rat): 40%

Clc1cccc(Cl)c1Cc1cnc[nH]1 [4-(2',6'-dichlorobenzyl)imidazole, 4-(2',6'-Dichlorobenzyl)imidazole]
selectivity ratio [6]: 1600 | ED50 [3]: 0.03 mg/kg | LD50 [4]: 48 mg/kg | minimal effective dose [5, 10]: 0.03 to 0.1 mg/kg | minimal effective dose [5, 11]: 0.03 to 0.1 mg/kg

CCc1cccc(CC)c1Cc1c[nH]cn1 [4-(2',6'-diethylbenzyl)imidazole]
minimal effective dose [5, 10]: 0.03 to 0.2 mg/kg | minimal effective dose [5, 11]: 0.03 mg/kg

Cc1ccccc1C(=O)c1nc[nH]c1C [5-methyl-4-(2'-methylbenzoyl)imidazole, 5-Methyl-4-(2'-methylbenzoyl)imidazole]
Anti-inflammatory activity ([2]; 100 mg/kg p.o. in the rat): + | inhibition in vivo at 100 mg/kg ([2]; 100 mg/kg p.o. in the rat): 44%
